Test results as given in patent US6844344B2, “Benzofuran derivatives” (Eli Lilly and Company, priority 1999, dated 2005).
Counter-ions that a name gives are not always drawn.

SMILES	melting point
COc1cccc2sc([C@@H]3CCN(C[C@H](O)COc4cccc5oc(C)cc45)[C@H](C)C3)cc12 (as salt: oxalate) [Example 26, (2S)-(−)-3-[(2R,4R)-4-(4-Methoxybenzo[b]thiophen-2-yl)-2-methylpiperidin-1-yl]-1-(2-methylbenzofuran-4-yl)oxy-2-propanol]	101.2 to 109.5 °C
COc1cccc2sc([C@H]3CCN(C[C@H](O)COc4cccc5oc(C)cc45)[C@@H](C)C3)cc12 (as salt: oxalate) [Example 27, (2S)-(+)-3-[(2S,4S)-4-(4-Methoxybenzo[b]thiophen-2-yl)-2-methylpiperidin-1-yl]-1-(2-methylbenzofuran-4-yl)oxy-2-propanol]	98 °C (dec.)
COc1cccc2sc([C@@H]3CCN(C[C@H](O)COc4cccc5oc(C)cc45)[C@@H](C)C3)cc12 (as salt: oxalate) [Example 28, (2S)-(−)-3-[(2S,4R)-4-(4-Methoxybenzo[b]thiophen-2-yl)-2-methylpiperidin-1-yl]-1-(2-methylbenzofuran-4-yl)oxy-2-propanol]	99.2 to 103 °C
COc1cccc2sc([C@H]3CCN(C[C@H](O)COc4cccc5oc(C)cc45)[C@H](C)C3)cc12 (as salt: oxalate) [Example 29, (2S)-(+)-3-[(2R,4S)-4-(4-Methoxybenzo[b]thiophen-2-yl)-2-methylpiperidin-1-yl]-1-(2-methylbenzofuran-4-yl)oxy-2-propanol]	92.5 °C (dec.)
Cc1cc2c(OC[C@@H](O)CN3CC[C@@H](c4cc5cc(Cl)ccc5s4)C[C@H]3C)cccc2o1 (as salt: salt) [Example 30, (2S)-(−)-3-[(2R,4R)-4-(5-Chlorobenzo[b]thiophen-2-yl)-2-methylpiperidin-1-yl]-1-(2-methylbenzofuran-4-yl)oxy-2-propanol]	88.5 °C (dec.)
Cc1cc2c(OC[C@@H](O)CN3CC[C@H](c4cc5cc(Cl)ccc5s4)C[C@@H]3C)cccc2o1 (as salt: salt) [Example 31, (2S)-3-[(2S,4S)-4-(5-Chlorobenzo[b]thiophen-2-yl)-2-methylpiperidin-1-yl]-1-(2-methylbenzofuran-4-yl)oxy-2-propanol]	204.1 to 208.3 °C
Cc1cc2c(OC[C@@H](O)CN3CC[C@@H](c4cc5cc(Cl)ccc5s4)C[C@@H]3C)cccc2o1 (as salt: salt) [Example 32, (2S)-3-[(2S,4R)-4-(5-Chlorobenzo[b]thiophen-2-yl)-2-methylpiperidin-1-yl]-1-(2-methylbenzofuran-4-yl)oxy-2-propanol]	78.5 °C (dec.)
Cc1cc2c(OC[C@@H](O)CN3CC[C@H](c4cc5cc(Cl)ccc5s4)C[C@H]3C)cccc2o1 (as salt: salt) [Example 33, (2S)-(−)-3-[(2R,4S)-4-(5-Chloro-benzo[b]thiophen-2-yl)-2-methylpiperidin-1-yl]-1-(2-methylbenzofuran-4-yl)oxy-2-propanol]	81.4 °C (dec.)
COc1cccc2sc(C3CCN(C[C@H](O)COc4cccc5oc(C)cc45)C(C)(C)C3)cc12 (single isomer, unassigned; isomer 1) (as salt: hydrochloride) [Example 34]	101.1 °C (dec.)
COc1cccc2sc(C3CCN(C[C@H](O)COc4cccc5oc(C)cc45)C(C)(C)C3)cc12 (single isomer, unassigned; isomer 2) (as salt: hydrochloride) [Example 35]	83.5 °C (dec.)
COc1cccc2sc(C3CCN(C[C@H](O)COc4cccc5c4OC(C)(C)C5)[C@@H](C)C3)cc12.O=C(O)C(=O)O (stereo in doubt) [Example 8, (2S)-(+)-1-(2,3-Dihydro-2,2-dimethylbenzofuran-7-yl)oxy-3-[(2S, 4R)-4-(4-methoxybenzo[b]thiophen-2-yl)-2-methylpiperidinyl]-2-propanol Oxalate]	145 to 148 °C
COc1ccc2cc([C@@H]3CCN(C[C@H](O)COc4cccc5occc45)[C@H](C)C3)sc2c1.O=C(O)C(=O)O [Example 2, (2S)-(−)-1-(Benzofuran-4-yl)oxy-3-[(2R,4R)-4-(6-methoxybenzo[b]thiophen-2-yl)-2-methylpiperidinyl]-2-propanol Oxalate]	97 to 102 °C (dec.)
COc1ccc2cc([C@H]3CCN(C[C@H](O)COc4cccc5occc45)[C@@H](C)C3)sc2c1.O=C(O)C(=O)O [Example 3, (2S)-(+)-1-(Benzofuran-4-yl)oxy-3-[(2S.4S)-4-(6-methoxybenzo[b]thiophen-2-yl)-2-methylpiperidinyl]-2-propanol Oxalate]	97 to 102 °C
COc1ccc2cc([C@@H]3CCN(C[C@H](O)COc4cccc5occc45)[C@@H](C)C3)sc2c1.O=C(O)C(=O)O [Example 4, (2S)-1-(Benzofuran-4-yl)oxy-3-[(2S,4R)-4-(6-methoxybenzo[b]thiophen-2-yl)-2-methylpiperidinyl]-2-propanol Oxalate]	130 to 133 °C
O=C(O)C(=O)O.O[C@H](COc1cccc2occc12)CN1CCC(c2cc3ccc(F)cc3s2)CC1 [Example 6, (2S)-(+)-1-(Benzofuran-4-yl)oxy-3-[4-(6-fluorobenzo[b]thiophen-2-yl)piperidinyl]-2-propanol Oxalate]	196 to 198 °C (dec.)
COc1cccc2sc([C@@H]3CCN(C[C@H](O)COc4cccc5c4OC(C)(C)C5)[C@H](C)C3)cc12.O=C(O)C(=O)O [Example 7, (2S)-(−)-1-(2,3-Dihydro-2,2-dimethylbenzofuran-7-yl)oxy-3-[(2R,4R)-4-(4-methoxybenzo[b]thiophen-2-yl)-2-methylpiperidinyl]-2-propanol Oxalate]	88 to 93 °C
COc1cccc2sc([C@@H]3CCN(C[C@H](O)COc4cccc5c4OC(C)(C)C5)[C@@H](C)C3)cc12.O=C(O)C(=O)O [Example 9, (2S)-1-(2,3-Dihydro-2,2-dimethylbenzofuran-7-yl)oxy-3-[(2S,4R)-4-(4-methoxybenzo[b]thiophen-2-yl)-2-methylylpiperidinyl]-2-propanol Oxalate]	83 to 86 °C
COc1cccc2sc([C@H]3CCN(C[C@H](O)COc4cccc5c4OC(C)(C)C5)[C@H](C)C3)cc12.O=C(O)C(=O)O [Example 10, (2S)-1-(2,3-Dihydro-2,2-dimethylbenzofuran-7-yl)oxy-3-[(2R,4S)-4-(4-methoxybenzo[b]thiophen-2-yl)-2-methylpiperidinyl]-2-propanol Oxalate]	93 to 96 °C
